The values that follow come from the METLIN SMRT retention time set (Domingo-Almenara et al. 2019).

The series is described as follows: gradient 5% acetonitrile 3 min, to 50% in 2 min, to 85% in 15 min, held 3 min, 100 µL/min. The settings on record: column: Zorbax Extend-C18 2.1 x 50 mm; eluents: water / acetonitrile, 0.1% formic acid. The gist of the method: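 Each retention time is based on an adduct peak selected computationally and verified by manual inspection. Measurements used HPLC–quadrupole time-of-flight mass spectrometry in positive and negative ionization mode on mixtures of ~100 pure standards. Chromatography ran on a Zorbax Extend-C18 column (2.1 × 50 mm, 1.8 μm) at 100 μL/min with water and acetonitrile, each containing 0.1% formic acid, and dead and dwell volumes of 40 μL and 900 μL.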
`Cc1ccn2cc(C(=O)NCc3cc(F)cc(F)c3)nc2c1` came in with an RP-LC retention time of 678 s.
The result for `CCc1noc(NC(C)=O)c1-c1ccc(C)c(S(=O)(=O)Nc2ccc(C)cc2Cl)c1` reads 914 s; that for `CCn1ccc2cc(S(=O)(=O)N3CCCC(C(=O)N4CCN(c5ccccn5)CC4)C3)ccc21` (centres undefined), 609 s; that for `O=C(NCCN1CCOCC1)C1CCCN(c2ncnc3c2nc2n3CCCCC2)C1` (centres undefined), 575 s.
Regarding `CN(CC1CCOC1)C(=O)Nc1cc(F)cc(F)c1` (centres undefined), the RP-LC retention time was 744 s.
`O=c1ccc(-c2nc(-c3ccc(Br)cc3)no2)cn1Cc1cc(=O)n2ccccc2n1` yielded an RP-LC retention time of 918 s.
In turn, `CCCc1noc(-c2nc(-c3ccc(OC)c(OC)c3)no2)n1` returned an RP-LC retention time of 1050 s.
The result for `Cc1cc2c(N3CCCC(C(=O)NCc4cccc(Cl)c4)C3)nccc2s1` (centres undefined) reads 713 s; that for `Cc1cc2c(cc1S(=O)(=O)N1CCC(C(=O)NCc3ccc(Cl)cc3)CC1)OCC(=O)N2`, 786 s; that for `Cc1c(Cc2ccc3c(c2)OCO3)sc(NC(=O)c2ccc([N+](=O)[O-])s2)c1C#N`, 1070 s.
On to `COc1ccc2cc3c(=O)n(Cc4ccccc4)nc-3oc2c1`, for which the RP-LC retention time amounted to 833 s.
`CCn1cc2nc(SCc3cc(F)cc(F)c3)n(Cc3ccccc3F)c(=O)c2n1` had an RP-LC retention time of 1150 s.
In turn, `O=c1ccc(N2CCC(NS(=O)(=O)c3cccs3)C2)nn1CCOc1ccccc1` (centres undefined) returned an RP-LC retention time of 801 s.
For `COc1cc(C(=O)Nc2ccc(C)cc2-c2nc3ccccc3[nH]c2=O)cc(OC)c1OC`, the RP-LC retention time came to 772 s.
The result for `Cc1ccc(NS(=O)(=O)c2cc3c(=O)n(C)ncn3c2)cc1F` reads 841 s; that for `CCOc1ccc(/C=C/c2nn3c(-c4cccnc4)nnc3s2)cc1`, 951 s; that for `Cc1cnn(Cc2nc(-c3ccc(NC(=O)Cc4ccccc4C)cc3)oc2C)c1`, 954 s.
In turn, `Cc1ccc(CNC(=O)C2CCN(CCc3cn(C)c4ncccc34)CC2)cc1` showed an RP-LC retention time of 615 s.
Compound `Cc1noc(-c2cc(=O)n(CC(=O)Nc3c(C)cccc3C)c3ccccc23)n1` displayed an RP-LC retention time of 839 s.
The result for `CCc1noc(-c2cnc3nc(C)ccc3c2NCc2ccccc2C)n1` reads 784 s.
Take `O=C(NC1CC1)C1CCN(c2nc3ncn(CC(=O)N4CCc5ccccc5C4)c(=O)c3s2)CC1`: the RP-LC retention time stood at 674 s.
Compound `CCOc1cc2c(cc1OCC)C1C(C(=O)Nc3cccnc3)c3ccccc3C(=O)N1CC2` (centres undefined) yielded an RP-LC retention time of 611 s.
`Cc1nn(-c2ccccc2)c2nc(N3CCCC(C(=O)NCc4ccc(F)cc4)C3)sc12` (centres undefined): the RP-LC retention time was 806 s.
In turn, `COc1cccc(-n2ccc(=O)c(-c3nc(-c4ccc(F)cc4)no3)n2)c1` had an RP-LC retention time of 898 s.
Compound `Cc1cc(Cl)ccc1NC(=O)N1CCC(n2cnnc2C2CC2)C1` (centres undefined) registered an RP-LC retention time of 661 s.
`Cc1ccc(C2(C)NC(=O)NC2=O)cc1` (centres undefined) returned an RP-LC retention time of 604 s.
`Cc1ccc(Cn2nc3c(S(=O)(=O)N4CCOCC4)cccn3c2=O)cc1`: the RP-LC retention time was found to be 774 s.
As for `COc1ccccc1NC(=O)N1CCN(c2cnn3c(C)nnc3c2)CC1`, the figure is 605 s.
As for `Cc1cccc2nc(-c3c(F)cccc3Cl)c(Nc3ccc4c(c3)OCO4)n12`, the figure is 697 s; as for `Cc1nc2cc(-c3noc(-c4ccccc4Br)n3)ccc2n(C)c1=O`, 948 s; as for `CCOc1ccc(N2CC(c3nnc(NC(=O)c4ccc(Br)cc4)o3)CC2=O)cc1` (centres undefined), 805 s.
Compound `O=C1CCCc2nc(N3CCN(c4ncccn4)CC3)nc(Nc3ccccc3)c21` gave an RP-LC retention time of 1110 s.
The result for `COc1cc(OC)c(NC(=O)C2CCCN(c3ncnc4c3nc3n4CCCCC3)C2)cc1Cl` (centres undefined) reads 862 s.
For `CCn1c(=O)sc2cc(S(=O)(=O)N3CCC(C(=O)NCCc4ccccc4)CC3)ccc21`, the RP-LC retention time was 942 s.
With `CCCc1ccc(S(=O)(=O)N2CCCC2c2nc(-c3ccc(C)cc3)no2)cc1` (centres undefined), the RP-LC retention time worked out at 1320 s.
Take `CC(=O)Nc1ccc(C2(C(=O)NCc3cccc(F)c3)CCC2)cc1`: the RP-LC retention time was 751 s.
`COC(=O)c1cn(CC(=O)NCc2ccc3c(c2)OCCCO3)c2ccccc12` registered an RP-LC retention time of 852 s.
Consider `O=C(Nc1nc2c(s1)CN(S(=O)(=O)/C=C/c1ccccc1)CC2)c1cnccn1`, for which the RP-LC retention time is 780 s.
`COCCCn1cc(C(=O)Nc2cccc(C)n2)c2nn(-c3ccccc3)c(=O)c-2c1` had an RP-LC retention time of 864 s.
As for `Cc1ccc(NC(=O)N(C)CCc2noc(COc3ccccc3F)n2)c(C)c1`, the figure is 922 s; as for `Cc1cc(C)cc(NC(=O)C2CCc3nc(N4CCOCC4)ncc3C2)c1` (centres undefined), 848 s.
`Cc1nnc(NC(=O)CN(C)c2nc3c(Cl)cccc3s2)s1`: the RP-LC retention time is 742 s.
With `CCOc1cncc(C(=O)N2CCCCC2C)c1` (centres undefined), the RP-LC retention time was determined as 725 s.
Consider `O=C(Nc1ccc2cn[nH]c2c1)c1ccc(F)cc1F`, for which the RP-LC retention time was 675 s.
The result for `CC1=C(C(=O)N(CC(=O)NC2CCC(C)CC2)c2ccc(Cl)cc2)SCCO1` (centres undefined) reads 1040 s; that for `COc1ccc(NC(=O)c2cc(C(C)C)n3nccc3n2)cc1`, 1040 s.
For `COc1ccccc1CC(=O)NC1CCN(c2cc(-c3ccccc3)[nH]n2)C1` (centres undefined), the RP-LC retention time worked out at 688 s.
`Cc1ccc(N2CC(c3nc(-c4ccc5c(c4)OCO5)no3)CC2=O)cc1F` (centres undefined) came in with an RP-LC retention time of 986 s.
In turn, `CC(CCc1ccccc1)NC(=O)CN1CCCN(Cc2ccccc2Cl)S1(=O)=O` (centres undefined) yielded an RP-LC retention time of 1070 s.
`Brc1ccc(NCc2nnc(-c3ccccc3)o2)cc1` returned an RP-LC retention time of 899 s.
`CCn1cc(CCN2CCN(S(=O)(=O)c3ccc(F)cc3)CC2)c2cccnc21` yielded an RP-LC retention time of 638 s.
The result for `COC(=O)c1c(C)[nH]c(C(=O)N2CCCC(C(=O)NCc3ccccn3)C2)c1C` (centres undefined) reads 577 s; that for `CCn1cc(-c2nc(C(=O)NCc3ccccc3F)cs2)c2cccnc21`, 987 s.
For the compound `O=C(Nc1cc(F)ccc1F)N1CCN(Cc2nc3cccnc3n2-c2ccccc2)CC1`, the RP-LC retention time is 676 s.
`CCN(CC)C(=O)c1cc2c(s1)CCC(C(=O)NCc1cccnc1)C2` (centres undefined) displayed an RP-LC retention time of 528 s.
As for `CCc1nc(-n2cccc2)sc1C(=O)NC1CCC(C)CC1` (centres undefined), the RP-LC retention time worked out at 1180 s.
`CC1=C(c2ccc(F)cc2)S(=O)(=O)N=C1N1CCCN(C(=O)CCC(C)C)CC1` showed an RP-LC retention time of 879 s.
With `COCCN1CC2(CCN(S(=O)(=O)c3cccc(Cl)c3)CC2)C1c1ccncc1` (centres undefined), the RP-LC retention time came to 631 s.
In turn, `CCOC(=O)c1c(C)[nH]c(C)c1S(=O)(=O)N1CCC(C(=O)Nc2cccc(C#N)c2)CC1` gave an RP-LC retention time of 797 s.
